Holding throughout (assay type): biochemical
Assay [1] addresses T1, hMeprin α (Homo sapiens, UniProt Q16819).
T1 sequence (Q16819 66-746): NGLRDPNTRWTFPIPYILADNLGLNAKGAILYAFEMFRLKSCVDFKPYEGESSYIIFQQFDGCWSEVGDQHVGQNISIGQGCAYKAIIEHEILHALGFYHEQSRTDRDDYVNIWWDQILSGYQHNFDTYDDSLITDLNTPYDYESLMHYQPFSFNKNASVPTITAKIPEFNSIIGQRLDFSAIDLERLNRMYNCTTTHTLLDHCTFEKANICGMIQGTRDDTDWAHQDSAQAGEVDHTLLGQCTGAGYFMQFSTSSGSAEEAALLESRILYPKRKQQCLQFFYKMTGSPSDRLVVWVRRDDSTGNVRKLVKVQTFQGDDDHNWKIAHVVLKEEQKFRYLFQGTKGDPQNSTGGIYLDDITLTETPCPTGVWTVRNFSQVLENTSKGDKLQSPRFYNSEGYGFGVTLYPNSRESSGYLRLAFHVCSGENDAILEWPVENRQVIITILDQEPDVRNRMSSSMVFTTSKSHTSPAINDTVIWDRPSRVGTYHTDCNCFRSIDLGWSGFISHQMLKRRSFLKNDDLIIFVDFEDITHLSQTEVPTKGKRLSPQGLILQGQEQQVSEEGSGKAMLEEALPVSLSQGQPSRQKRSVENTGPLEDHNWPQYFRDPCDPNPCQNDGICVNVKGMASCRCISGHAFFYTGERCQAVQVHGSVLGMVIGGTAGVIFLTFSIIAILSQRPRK
Nature of the assay: Enzymatic assay, quenched peptide substrate cleavage, method B. Particulars: geometric mean (geometric SD factor in parentheses); for Ki: Morrison's equation, read-out: Meprin alpha Ki(app); for IC50: read-out: Meprin alpha IC50. The method in brief:
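Cleavage of internally quenched peptides was read at 340/420 nm and 30° C., with enzyme at 5e-8 to 2e-10 M and substrate at 0.15–80 μM. Inhibitor solutions contained 1% DMSO and substrate 0.5% DMSO. Method B gave Ki(app) values via Morrison's equation, with kinetics measured in at least duplicate on separate days.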

Assay [2] addresses T1, hMeprin α. As to the kind of experiment: Enzymatic assay, quenched peptide substrate cleavage, method A. The following applies: geometric mean (geometric SD factor in parentheses), read-out: Meprin alpha IC50. On the procedure:
(§1) The determination of enzymatic activity was based on the cleavage of internally quenched peptide substrates. A typical assay of 250 μl total volume measured in black 96 well plates consisted of 100 μl buffer, 50 μl enzyme at a final concentration of 5e-8 M to 2e-10 M, 50 μl substrate (0.15 to 80 μM, in buffer, 0.5% DMSO) and 50 μl inhibitor solution (in buffer, 1% DMSO). In case of 125 μl assay volume (black 96 half area well plates) all volumes were cut in half. Enzymatic activity of ADAMs was measured in 384 well plates with 60 μl total assay volume consisting of 20 μl inhibitor, 20 μl buffer, 10 μl enzyme and 10 μl substrate.
(§2) Based on method B Ki^(app) values were determined using Morrison's equation. All measurements were performed using a fluorescence plate reader (FLUOSTAR OPTIMA, BMG Labtech) at 30° C. The kinetic parameters were determined at least in duplicates on separate days. The excitation/emission wavelength was 340/420 nm. The kinetic data was evaluated using GRAFIT software (version 7.0.3, Erithacus Software).

Assay [3] has as its target T2, hMeprin β (Homo sapiens, UniProt Q16820).
T2 sequence (Q16820 62-701): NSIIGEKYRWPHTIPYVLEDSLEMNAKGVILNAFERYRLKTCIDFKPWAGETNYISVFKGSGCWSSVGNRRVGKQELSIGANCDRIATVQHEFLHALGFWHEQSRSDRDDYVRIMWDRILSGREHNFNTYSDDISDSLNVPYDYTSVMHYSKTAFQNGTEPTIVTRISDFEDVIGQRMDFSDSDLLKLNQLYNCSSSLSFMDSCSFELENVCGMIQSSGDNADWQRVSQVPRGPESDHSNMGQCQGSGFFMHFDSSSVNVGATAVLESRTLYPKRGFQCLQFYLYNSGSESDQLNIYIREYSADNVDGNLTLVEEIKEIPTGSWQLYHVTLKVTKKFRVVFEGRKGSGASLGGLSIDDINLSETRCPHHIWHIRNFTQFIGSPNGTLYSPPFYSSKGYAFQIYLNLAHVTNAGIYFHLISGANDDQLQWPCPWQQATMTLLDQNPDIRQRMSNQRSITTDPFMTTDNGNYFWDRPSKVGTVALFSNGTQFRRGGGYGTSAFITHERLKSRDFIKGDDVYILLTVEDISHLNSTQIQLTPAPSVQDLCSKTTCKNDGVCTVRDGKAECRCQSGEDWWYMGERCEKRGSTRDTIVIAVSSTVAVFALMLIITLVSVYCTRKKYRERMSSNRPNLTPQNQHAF
The description is as above. The following applies: geometric mean (geometric SD factor in parentheses), read-out: Meprin beta IC50. On the procedure:
as §1, §2

The text below walks through data of patent US20250388544A1, “HETEROAROMATIC INHIBITORS OF ASTACIN PROTEINASES” (VIVORYON THERAPEUTICS N.V., priority 2019, published 2025).

As usually defined, the IC50 is the point on the concentration scale where inhibition reaches its midpoint.

For `O=C(Cc1c(-c2ccccc2)nn(Cc2cccc(C(=O)O)c2)c1-c1ccccc1)NO` [Example 41, 3-[[4-[2-(Hydroxyamino)-2-oxo-ethyl]-3,5-diphenyl-1H-pyrazol-1-yl]methyl]benzoic acid], in assay [1], the Ki was 0.33 nM and the IC50 came to 0.39 nM.
As for `O=C(Cc1c(-c2cc(F)c(O)c(Cl)c2)n[nH]c1-c1ccccc1)NO` [Example 54, 2-[3-(3-Chloro-5-fluoro-4-hydroxy-phenyl)-5-phenyl-1H-pyrazol-4-yl]ethanehydroxamic acid], in assay [1], the Ki was determined as 0.14 nM and the IC50 came out at 0.21 nM.
For `O=C(Cc1c(-c2ccccc2)nn(Cc2ccc(C(=O)O)cc2)c1-c1ccccc1)NO` [Example 40, 4-[[4-(2-(Hydroxyamino)-2-oxo-ethyl]-3,5-diphenyl-1H-pyrazol-1-yl]methyl]benzoic acid] the same measures were 0.38 nM and 0.45 nM.
In the case of `O=C(Cn1c(-c2ccccc2)nnc1-c1ccccc1)NO` [Example 7, 2-(3,5-Diphenyl-1,2,4-triazol-4-yl)ethanehydroxamic acid], the results for the IC50 in assay [2] and in assay [3] were 69 nM and 8710 nM, respectively.
The corresponding values for `O=C(Cn1c(-c2ccccc2)ccc1-c1ccccc1)NO` [Example 9, 2-(2,5-Diphenylpyrrol-1-yl)ethanehydroxamic acid] are 34 nM and 4320 nM.
As to `O=C(Cc1c(-c2ccccc2)nn(Cc2ccc3c(c2)OCO3)c1-c1ccccc1)NO` [Example 43, 2-[1-(1,3-Benzodioxol-5-ylmethyl)-3,5-diphenyl-1H-pyrazol-4-yl]ethanehydroxamic acid], in assay [1], the Ki was found to be 0.59 nM and the IC50 was 0.75 nM.
In the case of `O=C(Cn1c(-c2ccccc2)nc2ccccc21)NO` [Example 13, 2-(2-Phenylbenzimidazol-1-yl)ethanehydroxamic acid], the results for the IC50 in assay [2], in assay [3] and in assay [1] were 173 nM, 1630 nM and 141 nM, respectively. Also, in assay [1], the Ki turned out to be 128 nM.
`O=C(Cc1c(-c2ccc3c(c2)OCO3)n[nH]c1-c1ccccc1)NO` [Example 50, 2-[3-(1,3-Benzodioxol-5-yl)-5-phenyl-1H-pyrazol-4-yl]ethanehydroxamic acid]: in assay [1], the Ki was found to be 1 nM and the IC50 amounted to 1 nM.
As for `O=C(Cc1c(-c2cccc(C(=O)O)c2)n[nH]c1-c1ccc(Cl)c(O)c1F)NO` [Example 63, 3-[5-(4-Chloro-2-fluoro-3-hydroxy-phenyl)-4-[2-(hydroxyamino)-2-oxo-ethyl]-1H-pyrazol-3-yl]benzoic acid], in assay [1], the Ki came out at 5 nM and the IC50 is 5 nM.
With `O=C(Cn1c(-c2ccccc2)cc2ccccc21)NO` [Example 25, 2-(2-Phenylindol-1-yl)ethanehydroxamic acid], the figures for the IC50 in assay [2] and in assay [3] were 72 nM and 1140 nM, respectively.
As for `O=C(Cc1c(-c2ccccc2)noc1-c1ccccc1)NO` [Example 2, 2-(3,5-Diphenylisoxazol-4-yl)ethanehydroxamic acid], the IC50 in assay [2] is 7 nM; in assay [3] it was 831 nM; in assay [1], 4 nM. For the same molecule, the Ki in assay [1] was found to be 4 nM.
`O=C(Cc1c(-c2ccccc2)nn(Cc2ccc(Cl)c(O)c2F)c1-c1ccccc1)NO` [Example 42, 2-[1-(4-Chloro-2-fluoro-3-hydroxybenzyl)-3,5-diphenyl-1H-pyrazol-4-yl]ethanehydroxamic acid]: in assay [1], the Ki was determined as 0.08 nM and the half-inhibitory concentration (IC50) was 0.16 nM.
For `COc1cccc(-c2n[nH]c(-c3ccccc3)c2CC(=O)NO)c1` [Example 47, 2-[3-(3-Methoxyphenyl)-5-phenyl-1H-pyrazol-4-yl]ethanehydroxamic acid] the same measures were 1 nM and 1 nM.
For `O=C(Cc1c(-c2ccccc2)n[nH]c1-c1ccccc1)NO` [Example 1, 2-(3,5-Diphenyl-1H-pyrazol-4-yl)ethanehydroxamic acid], the IC50 was determined as 4 nM in assay [2], 204 nM in assay [3] and 1 nM in assay [1].
As for `O=C(CCc1c(-c2ccccc2)noc1-c1ccccc1)NO` [Example 4, 3-(3,5-Diphenylisoxazol-4-yl)propanehydroxamic acid], the IC50 in assay [2] is 32 nM; in assay [3] it was 13700 nM.
In the case of `COc1ccc(-c2n[nH]c(-c3ccccc3)c2CC(=O)NO)cc1OC` [Example 49, 2-[3-(3,4-Dimethoxyphenyl)-5-phenyl-1H-pyrazol-4-yl]ethanehydroxamic acid], in assay [1], the Ki was 0.71 nM and the IC50 was 0.79 nM.
As to `O=C(CCc1c(-c2ccccc2)n[nH]c1-c1ccccc1)NO` [Example 3, 3-(3,5-Diphenyl-1H-pyrazol-4-yl)propanehydroxamic acid], the IC50 in assay [2] came out at 108 nM; in assay [3] it was 8070 nM; in assay [1], 80 nM. Further, the Ki in assay [1] was 78 nM.
